Assays:
[1] = test system: Cyp1a1; assay: Cyp1a1 mRNA in rat small intestine (jejunum); format: in vivo
Protocol: All animal experiments were conducted in accordance with the Guiding Principles in the Use of Animals in Toxicology (http://www.toxicology.org/ai/air/air6.asp) and were approved by Abbott's Institutional Animal Care and Use Committee (IACUC). Male Sprague-Dawley rats [Crl:CD®(SD)IGS BR], weighing ~250 g at study initiation were obtained from Charles River Laboratories, Inc. (Wilmington, MA). Rats were housed singly in ventilated, stainless steel, wire-bottom hanging cages and fed non-certified Rodent Chow (Harlan Labs, Madison, WI), and water ad libitum and acclimated for at least 5 days after arrival. […] Serum clinical chemistry parameters were quantified using an Aeroset Clinical Chemistry Analyzer (Abbott Laboratories, Abbott Park, IL) and included alanine amino transferase (ALT), aspartate amino transferase (AST), gamma glutamyltransferase (GGT), and alkaline phosphatase (ALP) activities.
Frozen liver or jejunum were immediately added to 4 ml of TRIzol reagent (Invitrogen Life Technologies) and homogenized using a Polytron 300D homogenizer (Brinkman Instruments, Westbury, NY). […] Nucleic acid concentration was determined by OD 260 nm (Smart-Spec, Bio-Rad Laboratories, Hercules, CA), and RNA integrity was evaluated using an Agilent 2100 bioanalyzer (Agilent Technologies, Foster City, CA). […]

[2] = test system: CYP1A1; assay: CYP1A1 mRNA induction in primary human hepatocytes; format: cell-based; conditions: 24 h, dose-dependent
Protocol: Rat hepatocytes were isolated in a perfusion procedure as described previously (Elliget and Kolaja, [1983]; Waring et al., [2001]). The beagle dog hepatocytes were isolated in the same manner, except for adjustment of flow rate and buffer volume to scale to liver size. Cells were plated at a seeding density of 1.0 × 10^6 cells per well on 6-well, collagen-type I coated plates (BD Biosciences, Bedford, MA) in hepatocyte plating medium (Celsis, Baltimore, MD). Cells were allowed to attach for 24 h in a 37°C humidified incubator with a 5% CO2 atmosphere and were dosed for 24 h (rat) or 48 h (dog) with vehicle control [0.1% DMSO (v/v)] or 10 μM A-998679 in fresh treatment media (Celsis hepatocyte incubation media) every 24 h. After the last incubation, cells were lysed in 1 ml of Qiazol (Qiagen) and stored at −80°C until RNA isolation. Cryopreserved human hepatocytes (donor designation Hu4198; Invitrogen Life Technologies, Carlsbad, CA) were thawed and plated according to the manufacturer's protocol and allowed to incubate for 24 h. […]
RNA samples were diluted with RNase-free molecular biology grade water to a concentration of 20 ng/μl total RNA. […] Results were analyzed by calculating the fold change of CYP1A1 and/or CYP1A2 mRNA levels normalized to 28S rRNA (ΔΔ Ct) in compound treated cells or tissues compared to vehicle levels. […]

[3] = target: T1, CYP3A4 (Homo sapiens, UniProt P08684); assay: CYP inhibition evaluation in human liver microsomes, CYP3A4 (midazolam); format: in vitro ADME; conditions: probe substrate midazolam
T1 construct: from tissue; host or cells: human liver microsomes
T1 sequence (P08684 whole entry): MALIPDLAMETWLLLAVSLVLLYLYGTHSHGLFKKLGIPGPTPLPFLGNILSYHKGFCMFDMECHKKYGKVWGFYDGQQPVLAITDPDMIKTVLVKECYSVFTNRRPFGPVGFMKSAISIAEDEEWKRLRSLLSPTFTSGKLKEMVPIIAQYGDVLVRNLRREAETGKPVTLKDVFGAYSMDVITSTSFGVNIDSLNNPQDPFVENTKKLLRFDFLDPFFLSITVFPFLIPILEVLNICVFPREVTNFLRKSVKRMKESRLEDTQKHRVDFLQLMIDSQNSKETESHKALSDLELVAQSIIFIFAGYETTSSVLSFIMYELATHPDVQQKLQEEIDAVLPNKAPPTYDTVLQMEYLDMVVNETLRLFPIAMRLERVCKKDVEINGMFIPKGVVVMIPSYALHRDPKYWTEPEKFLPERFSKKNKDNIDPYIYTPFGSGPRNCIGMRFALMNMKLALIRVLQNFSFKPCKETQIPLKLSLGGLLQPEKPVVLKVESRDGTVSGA
Protocol: Incubations were performed in human liver microsomes using probe substrate concentrations similar to their corresponding Km values. Enzyme activity was evaluated in the presence of various concentrations of A-998679. The incubations consisted of the test article at varying concentrations (0–30 μM), probe substrate (concentration ~Km, see Table A2), human liver microsomal protein and 1 mM NADPH in 50 mM phosphate buffer at pH 7.4. Relative quantitation of the metabolites was obtained by LC-MS/MS using an ABSciex (Foster City, CA) API3000 or API4000 Qtrap hybrid linear ion trap mass spectrometer equipped with a TurboIonspray source using either PerkinElmer series 200 pumps or Agilent 1100 series pump with a Leap autosampler. Analytes were separated using a Phenomenex Prodigy ODS(3) 5 μm, 50 × 2.0 mm column at 50°C, eluted and detected under the specific conditions listed in Tables A3, A4, and A5. The analyte to internal standard peak area ratios were determined using Analyst 1.4 software (Applied Biosytems, Carlsbad, CA). The peak area ratios observed in the presence of test article were compared to the vehicle control in order to determine percent activity. To determine the IC50, the data were plotted as Log [dose] μM vs. % inhibition, and analyzed with a sigmoidal dose-response (variable slope) fitting equation. […]

[4] = 5-day rat exploratory toxicology study (liver weight, clinical chemistry, histopathology); format: in vivo; conditions: 5 days
Protocol: All animal experiments were conducted in accordance with the Guiding Principles in the Use of Animals in Toxicology (http://www.toxicology.org/ai/air/air6.asp) and were approved by Abbott's Institutional Animal Care and Use Committee (IACUC). Male Sprague-Dawley rats [Crl:CD®(SD)IGS BR], weighing ~250 g at study initiation were obtained from Charles River Laboratories, Inc. (Wilmington, MA). Rats were housed singly in ventilated, stainless steel, wire-bottom hanging cages and fed non-certified Rodent Chow (Harlan Labs, Madison, WI), and water ad libitum and acclimated for at least 5 days after arrival. Rats were randomly assigned to various treatment groups (3 rats/group) and were dosed once daily by oral gavage with vehicle (0.2% hydroxypropylmethylcellulose at a dose volume of 10 ml/kg) or with 30, 100, or 200 mg/kg of A-998679. All rats were fasted overnight after their last dose, weighed and sacrificed under isoflurane anesthesia. For histopathological evaluation, liver, heart, kidney, spleen, bone (sternum) with marrow, gastrointestinal tract (duodenum with pancreas, jejunum, ileum, cecum, and colon), thymus, and lung were fixed in formalin, routinely processed, and embedded in paraffin. Paraffin sections (4 μm) were stained with hematoxylin and eosin. Liver and small intestine (jejunum) were also flash frozen in liquid nitrogen and stored at −80°C until processing for gene expression profiling. Serum clinical chemistry parameters were quantified using an Aeroset Clinical Chemistry Analyzer (Abbott Laboratories, Abbott Park, IL) and included alanine amino transferase (ALT), aspartate amino transferase (AST), gamma glutamyltransferase (GGT), and alkaline phosphatase (ALP) activities.

Cyp1a1 mRNA expression in rat jejunum ([1]; 200 mg/kg): significantly decreased | Cyp1a1 mRNA expression in rat jejunum ([1]; 30 and 100 mg/kg, high interindividual variability): increased | lowest concentration inducing CYP1A1 mRNA [2]: 3 µM | IC50 [3]: > 30 µM
Compound: N#Cc1cccc(-c2noc(-c3cccnc3)n2)c1 [A-998679, 3-(5-pyridin-3-yl-1,2,4-oxadiazol-3-yl) benzonitrile]
increase in relative liver weight ([4]; 200 mg/kg/day): ~ 25% | clinical chemistry parameters ([4]; 30-200 mg/kg/day): No significant changes | histopathology ([4]; 30-200 mg/kg/day): No significant changes | change in relative liver weight ([4]; lower doses (30 and 100 mg/kg/day)): no change

— article PMC3481155, “AhR activation underlies the CYP1A autoinduction by A-998679 in rats” (Frontiers in Genetics, 2012)
